From article PMC8912008, “Pharmacokinetic Study of Withanosides and Withanolides from Withania somnifera Using Ultra-High Performance Liquid Chromatography-Tandem Mass Spectrometry (UHPLC-MS/MS)” (Molecules, 2022)
Read-outs that look alike come from different tables or passages of the source.

Assays:
in vivo = settings: rat; for AUC(0-inf) / AUC(0-t) / Cmax / MRT inf / Tmax / half-life / k el: male, Sprague Dawley
From the text: It is known that the hydrophobic interior surface of the cell membrane (lipid bilayer) serves as a barrier to the passage of polar and high molecular weight molecules.
Food pellets and tap water were provided ad libitum throughout the experimentation. The protocol to carry out in vivo pharmacokinetics was approved by The Institutional Animal Ethics Committee (IAEC) of Crystal Biological Solution, Pune, Maharashtra, India. […] Eighteen animals were subdivided into three groups, (n = 6) animals in each group. Withania somnifera extract suspension was prepared in water for oral administration, and the dose was calculated based on the acute oral toxicity study (500 mg/kg; single dose). […] The separated plasma samples were transferred into Eppendorf tubes and stored at −80 °C in a deep freezer until analysis. Ten pharmacokinetic parameters were determined using PK solver 2.0, USA [45, 46, 47]. The maximum observed concentration (Cmax) and maximum observed time (Tmax) were calculated directly from the experimental results. The elimination rate constant (Kel) was calculated from the slope of the linear regression of Log concentrations as a function of time. […] The area under the curve (AUC(0–t)) was calculated from the linear curve following the trapezoidal rule, while AUC(0–∞) was calculated by adding Ct/λ, with Ct being the final measurable concentration. Oral clearance (Cl/F) was obtained from the equation Cl/F = dose/AUC(0–∞). Mean residence time (MRT) was calculated as AUMC(0–∞)/AUC(0–∞), where AUMC(0–∞) is the area under the first moment curve. […] The pharmacokinetic parameters as the average of six rats ± SD. The mean plasma concentration Vs. time curve (mean ± SD) was prepared using Prism 8.2, (GraphPad, San Diego, CA, USA).

in vitro = settings: rat
From the text: (§1) The everted intestinal segment was mounted on the apparatus and setting it in the beaker. The internal surface of the glass tubes serves as the mucosal compartment, and the beaker serves as the serosal compartment. Animals were humanly sacrificed by cervical dislocation followed by a midline incision. The abdominal cavity was opened carefully, and the intestine was maneuvered to identify the ileocecal junction. A 7 cm long intestinal segment distant to the ileocecal junction (5–6 cm) was excised by carefully removing the mesenteric attachments without causing any damage to the intestinal architecture. The segment was cleaned using the Kreb’s Ringer Bicarbonate (KRB) buffer medium and was stored in KRB buffer in a petri dish. The cleaned segment was then everted gently using a glass rod. Finally, a 3 cm long intestinal segment was used to perform the permeability study [49, 50].
(§2) The tissue was mounted on the apparatus and was placed in a 1000 mL beaker containing 2 mg/mL WSE suspension. The intestinal segment was perfused from the mucosal end using the KRB buffer. The apparatus (beaker with tissue) was placed on the magnetic stirrer followed by continuous stirring using a magnetic bead at 25 rpm to mimic the peristaltic movement of the stomach at 37 °C with appropriate aeration. The sample collection at different time points was carried out every 5 min interval for 1 h. The collected samples were further diluted and analyzed using LC-MS/MS.
(§3) The sample was diluted to 20-fold in ACN and injected 2 µL into LC-MS/MS. Samples were stored at −20 °C until analysis using validated UHPLC-MS/MS. The permeability was obtained by plotting the cumulative amount transported (ng) across the gut sac against time (second).
(§4) The calculation of apparent permeability (Papp) was carried out using the following Equation (1):Papp = dQ/dt × 1/A × C0(1) where Papp: apparent permeability co-efficient; dQ/dt: the cumulative amount of drug (Q) appearing in the acceptor (serosal) compartment as a function of time and was obtained from the slope of the linear portion of the amount transported-versus-time plot. A: Surface area of the intestine (cm^2) (0.18 cm as radius) and C0: Initial concentration of drug in the donor compartment (ng/mL).

[1] = Stability of analytes in rat plasma; settings: n = 6; for Processed sample stability (% ± SD): processed rat plasma sample, 4 h; for Bench top Stability (% ± SD): 25 °C for 4 h; for Freeze-thaw stability (% ± SD): three freeze/thaw cycles
Protocol: Six replicates of quality control samples were analyzed at four concentration levels (LLOQ, LQC, MQC, and HQC; n = 6) on the same day (intra-day) and repeated for three consecutive days (inter-day) (Table S2). The precision was expressed as the relative standard deviation (% RSD), and accuracy was reported as the relative error (% RE). Later, these samples were analyzed for stability testing under the following conditions: three complete freeze/thaw cycles (−80 °C to 25 °C), long-term sample storage (−80 °C for 60 days), processed sample, and bench-top (25 °C for 4 h).

chromosomes = test system: chromosomes
Protocol: After completing the study, chromosomal slides were observed under 100×, and the % aberrated chromosomes were calculated.

[2] = male rats, cited from earlier work
[3] = Balb/C mice, 4 mg/kg single intraperitoneal; cited from earlier work
[4] = mice, oral Withania somnifera aqueous extract 1000 mg/kg; cited from earlier work
[5] = Ex vivo permeability study, everted rat intestine apparatus
From the text: as §1, §2, §3, §4

[6] = high QC (nominal 200.50-201.50 ng/mL)
[7] = low QC (nominal 10.05-10.50 ng/mL)
[8] = rat plasma, high QC (nominal 200.50-201.50 ng/mL)
[9] = rat plasma, low QC (nominal 10.05-10.50 ng/mL)

Structure (SMILES) | AUC(0-inf) (in vivo; in vivo, po, 500 mg/kg) [ng·h/mL] | AUC(0-t) (in vivo; in vivo, po, 500 mg/kg) [ng·h/mL] | Cmax (in vivo; in vivo, po, 500 mg/kg) [ng/mL] | MRT inf (in vivo; in vivo, po, 500 mg/kg) [min] | Tmax (in vivo; in vivo, po, 500 mg/kg) [min] | half-life (in vivo; in vivo, po, 500 mg/kg) [min] | k el (in vivo; in vivo, po, 500 mg/kg) [s⁻¹] | oral clearance (Cl/F) (in vivo; in vivo, po, 500 mg/kg) | Papp at 1 h, 2 mg/mL (in vitro) [×10⁻⁶ cm/s] | Processed sample stability (% ± SD) [1, 6] [%] | Processed sample stability (% ± SD) [1, 7] [%] | Bench top Stability (% ± SD) [1, 8] [%] | Bench top Stability (% ± SD) [1, 9] [%] | Autosampler stability (% ± SD) [1, 8] [%] | Autosampler stability (% ± SD) [1, 9] [%] | Freeze-thaw stability (% ± SD) [1, 8] [%] | Freeze-thaw stability (% ± SD) [1, 9] [%] | plasma half-life (t1/2) [4] [min] | also measured
CC1=C(CO)C(=O)OC(C(C)C2CCC3C4C5OC5C5(O)CC=CC(=O)C5(C)C4CCC23C)C1 (stereo not drawn) [12-Deoxy-withastramonolide] | 92.3 ± 13.5 | 82.9 ± 7.82 | 57.5 ± 7.52 | 140 ± 40 | 17.5 ± 6.12 | 104 ± 30.3 | 0.000121 | 0.016 ± 0.002 (mg/kg)/(ng/mL)/h | 0.122 | 92.99 ± 8.83 | 121.14 ± 59.07 | 95.97 ± 7.13 | 97.92 ± 7.04 | 108.67 ± 1.94 | 101.72 ± 3.25 | 97.78 ± 4.28 | 101.34 ± 8.37 | – | –
O=P1(N(CCCl)CCCl)NCCCO1 (stereo not drawn) [Cyclophosphamide] | – | – | – | – | – | – | – | – | – | – | – | – | – | – | – | – | – | – | % Aberration (chromosomes): 52%; MI mitotic index (chromosomes): 52; RCG (%) relative cell growth (chromosomes): 112%; RMI (%) relative mitotic index (chromosomes): 85%; Ratio with Negative (chromosomes): 10.40
CC1=C(CO)C(=O)O[C@@H]([C@@H](C)[C@H]2CC[C@H]3[C@@H]4C[C@H]5O[C@]56[C@@H](O)C=CC(=O)[C@]6(C)[C@H]4CC[C@]23C)C1 [Withaferin A] | – | – | – | – | – | – | – | – | – | 99.56 ± 5.11 | 103.30 ± 8.41 | 94.72 ± 6.57 | 103.30 ± 8.41 | 108.40 ± 1.59 | 103.09 ± 4.95 | 102.10 ± 5.76 | 103.41 ± 5.62 | 59.92 ± 15.90 | AUC(0-inf) (in vivo; plasma, po, 500 mg/kg): 188 ± 20.5 ng·h/mL; AUC(0-t) (in vivo; plasma, po, 500 mg/kg): 161 ± 18.9 ng·h/mL; Cmax (in vivo; plasma, po, 500 mg/kg): 124 ± 64.9 ng/mL; MRT inf (in vivo; plasma, po, 500 mg/kg): 231 ± 51.4 min; Tmax (in vivo; plasma, po, 500 mg/kg): 15 min; half-life (in vivo; plasma, po, 500 mg/kg): 189 ± 36.7 min; k el (in vivo; plasma, po, 500 mg/kg): 6.28e-05 s⁻¹; oral clearance (Cl/F) (in vivo; WSE 500 mg/kg oral single dose): 0.026 ± 0.003 (mg/kg)/(ng/mL)/h; bioavailability ([2]; withaferin A 10 mg/kg oral dose, 5 mg/kg I.V. dose): 32.4 ± 4.8%; Cmax ([2]; withaferin A 10 mg/kg oral): 619 ± 125 ng/mL; Tmax ([2]; withaferin A 10 mg/kg oral): 6.6 ± 4.2 min; half-life ([2]; withaferin A 10 mg/kg oral): 456 ± 198 min; AUC(0–t) [3]: 1.09 µM·h; Clearance from plasma [3]: 0.151 L/h; Cmax [3]: 1800 nM; Tmax [3]: 4.98 min; plasma half-life [3]: 81.6 min; Tmax [4]: 20.00 min; Long-term stability (% ± SD) ([1]; rat plasma, −80 °C for 60 days, high QC (nominal 200.50-201.50 ng/mL), the values are: measured concentration): 204 ± 8.81 ng/mL; Papp at 1 h, 2 mg/mL [5]: 0.113 ×10⁻⁶ cm/s
CC1=C(C)C(=O)O[C@@H]([C@](C)(O)[C@H]2CC[C@H]3[C@@H]4[C@@H]5O[C@@H]5[C@@]5(O)CC=CC(=O)[C@]5(C)[C@H]4CC[C@]23C)C1 [Withanolide A] | 7.53 ± 1.83 | 4.18 ± 1.03 | 7.28 ± 3.34 | 75 ± 34.3 | 20 ± 7.74 | 43.7 ± 25.4 | 0.000391 | 0.356 ± 0.090 (mg/kg)/(ng/mL)/h | 0.0665 | 99.36 ± 6.79 | 128.43 ± 68.06 | 103.63 ± 6.10 | 102.00 ± 7.99 | 105.04 ± 3.63 | 105.35 ± 3.83 | 98.89 ± 4.24 | 102.18 ± 6.01 | 45.22 ± 9.95 | –
